Measurements as given in PubChem BioAssay (NCI).
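Test compounds were applied to cells in 96-well plates for 48 hours at 5 doses. Abbreviation: GI50, concentration required for 50% inhibition of growth. TGI: total growth inhibition.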

What was measured:
Experiment in all cases: NCI anticancer screen, dose series, 48 h
SF-539 CNS = system: SF-539 CNS
RXF 393 renal = system: RXF 393 renal
PC-3 prostate = system: PC-3 prostate
UACC-62 melanoma = system: UACC-62 melanoma
HCC-2998 colon = system: HCC-2998 colon
SK-OV-3 ovarian = system: SK-OV-3 ovarian
NCI/ADR-RES ovarian = system: NCI/ADR-RES ovarian
BT-549 breast = system: BT-549 breast
SF-268 CNS = system: SF-268 CNS
TK-10 renal = system: TK-10 renal
SNB-75 CNS = system: SNB-75 CNS
OVCAR-5 ovarian = system: OVCAR-5 ovarian
SK-MEL-5 melanoma = system: SK-MEL-5 melanoma
MDA-MB-435 = system: MDA-MB-435
T-47D breast = system: T-47D breast
SF-295 CNS = system: SF-295 CNS
CAKI-1 renal = system: CAKI-1 renal
MALME-3M melanoma = system: MALME-3M melanoma
RPMI-8226 leukemia = system: RPMI-8226 leukemia
MOLT-4 leukemia = system: MOLT-4 leukemia
A549 NSCLC = system: A549 NSCLC
HCT-116 colon = system: HCT-116 colon
NCI-H23 lung = system: NCI-H23 lung
NCI-H460 lung = system: NCI-H460 lung
UO-31 renal = system: UO-31 renal
SNB-19 CNS = system: SNB-19 CNS
HL-60(TB) leukemia = system: HL-60(TB) leukemia
NCI-H522 lung = system: NCI-H522 lung
U251 CNS = system: U251 CNS
SK-MEL-28 melanoma = system: SK-MEL-28 melanoma
MDA-MB-231 breast = system: MDA-MB-231 breast
786-0 renal = system: 786-0 renal
COLO 205 colon = system: COLO 205 colon
HT29 colon = system: HT29 colon
SW-620 colon = system: SW-620 colon
K-562 leukemia = system: K-562 leukemia
SN12C renal = system: SN12C renal
DU-145 prostate = system: DU-145 prostate
OVCAR-8 ovarian = system: OVCAR-8 ovarian
M14 melanoma = system: M14 melanoma
HOP-62 NSCLC = system: HOP-62 NSCLC
HS 578T breast = system: HS 578T breast
SR leukemia = system: SR leukemia
HOP-92 NSCLC = system: HOP-92 NSCLC
IGROV1 ovarian = system: IGROV1 ovarian
SK-MEL-2 melanoma = system: SK-MEL-2 melanoma
EKVX NSCLC = system: EKVX NSCLC
A498 renal = system: A498 renal
OVCAR-3 ovarian = system: OVCAR-3 ovarian
OVCAR-4 ovarian = system: OVCAR-4 ovarian
HCT-15 colon = system: HCT-15 colon
CCRF-CEM leukemia = system: CCRF-CEM leukemia
NCI-H226 lung = system: NCI-H226 lung
ACHN renal = system: ACHN renal
UACC-257 melanoma = system: UACC-257 melanoma

Q: Which results are given for `CC1Cc2c(Cl)ncnc2N(C)c2ccc(Cl)cc21` (stereo not given)?
A: GI50 (SF-539 CNS): 513 nM; TGI (SF-539 CNS): > 100000 nM; GI50 (RXF 393 renal): 342 nM; TGI (RXF 393 renal): 1460 nM; GI50 (PC-3 prostate): 386 nM; TGI (PC-3 prostate): > 100000 nM; GI50 (UACC-62 melanoma): 406 nM; TGI (UACC-62 melanoma): 69200 nM; GI50 (HCC-2998 colon): 307 nM; TGI (HCC-2998 colon): 58100 nM; GI50 (SK-OV-3 ovarian): 372 nM; TGI (SK-OV-3 ovarian): 12900 nM; GI50 (NCI/ADR-RES ovarian): 333 nM; TGI (NCI/ADR-RES ovarian): 32300 nM; GI50 (BT-549 breast): 309 nM; TGI (BT-549 breast): 11100 nM; GI50 (SF-268 CNS): 319 nM; TGI (SF-268 CNS): 18200 nM; GI50 (TK-10 renal): 315 nM; TGI (TK-10 renal): 13200 nM; GI50 (SNB-75 CNS): 79.5 nM; TGI (SNB-75 CNS): > 100000 nM; GI50 (OVCAR-5 ovarian): 592 nM; TGI (OVCAR-5 ovarian): > 100000 nM; GI50 (SK-MEL-5 melanoma): 185 nM; TGI (SK-MEL-5 melanoma): 338 nM; GI50 (MDA-MB-435): 329 nM; TGI (MDA-MB-435): 1850 nM; GI50 (T-47D breast): 521 nM; TGI (T-47D breast): > 100000 nM; GI50 (SF-295 CNS): 341 nM; TGI (SF-295 CNS): > 100000 nM; GI50 (CAKI-1 renal): 348 nM; TGI (CAKI-1 renal): > 100000 nM; GI50 (MALME-3M melanoma): 276 nM; TGI (MALME-3M melanoma): 3670 nM; GI50 (RPMI-8226 leukemia): 441 nM; TGI (RPMI-8226 leukemia): 17100 nM; GI50 (MOLT-4 leukemia): 382 nM; TGI (MOLT-4 leukemia): > 100000 nM; GI50 (A549 NSCLC): 378 nM; TGI (A549 NSCLC): > 100000 nM; GI50 (HCT-116 colon): 314 nM; TGI (HCT-116 colon): 12600 nM; GI50 (NCI-H23 lung): 316 nM; TGI (NCI-H23 lung): 2200 nM; GI50 (NCI-H460 lung): 381 nM; TGI (NCI-H460 lung): > 100000 nM; GI50 (UO-31 renal): 337 nM; TGI (UO-31 renal): > 100000 nM; GI50 (SNB-19 CNS): 636 nM; TGI (SNB-19 CNS): > 100000 nM; GI50 (HL-60(TB) leukemia): 403 nM; TGI (HL-60(TB) leukemia): > 100000 nM; GI50 (NCI-H522 lung): 232 nM; TGI (NCI-H522 lung): 776 nM; GI50 (U251 CNS): 378 nM; TGI (U251 CNS): > 100000 nM; GI50 (SK-MEL-28 melanoma): 394 nM; TGI (SK-MEL-28 melanoma): 95100 nM; GI50 (MDA-MB-231 breast): 274 nM; TGI (MDA-MB-231 breast): 691 nM; GI50 (786-0 renal): 321 nM; TGI (786-0 renal): > 100000 nM; GI50 (COLO 205 colon): 190 nM; TGI (COLO 205 colon): 369 nM; GI50 (HT29 colon): 232 nM; TGI (HT29 colon): 846 nM; GI50 (SW-620 colon): 335 nM; TGI (SW-620 colon): 4740 nM; GI50 (K-562 leukemia): 496 nM; TGI (K-562 leukemia): > 100000 nM; GI50 (SN12C renal): 411 nM; TGI (SN12C renal): 19300 nM; GI50 (DU-145 prostate): 589 nM; TGI (DU-145 prostate): > 100000 nM; GI50 (OVCAR-8 ovarian): 394 nM; TGI (OVCAR-8 ovarian): 20600 nM; GI50 (M14 melanoma): 312 nM; TGI (M14 melanoma): 29700 nM; GI50 (HOP-62 NSCLC): 339 nM; TGI (HOP-62 NSCLC): 11100 nM; GI50 (HS 578T breast): 342 nM; TGI (HS 578T breast): > 100000 nM; GI50 (SR leukemia): 467 nM; TGI (SR leukemia): > 100000 nM; GI50 (HOP-92 NSCLC): 279 nM; TGI (HOP-92 NSCLC): 986 nM; GI50 (IGROV1 ovarian): 468 nM; TGI (IGROV1 ovarian): > 100000 nM; GI50 (SK-MEL-2 melanoma): 280 nM; TGI (SK-MEL-2 melanoma): 836 nM; GI50 (EKVX NSCLC): 299 nM; TGI (EKVX NSCLC): 9730 nM; GI50 (A498 renal): 240 nM; TGI (A498 renal): 547 nM; GI50 (OVCAR-3 ovarian): 210 nM; TGI (OVCAR-3 ovarian): 477 nM; GI50 (OVCAR-4 ovarian): 422 nM; TGI (OVCAR-4 ovarian): > 100000 nM; GI50 (HCT-15 colon): 331 nM; TGI (HCT-15 colon): > 100000 nM; GI50 (CCRF-CEM leukemia): 510 nM; TGI (CCRF-CEM leukemia): > 100000 nM; GI50 (NCI-H226 lung): 241 nM; TGI (NCI-H226 lung): 602 nM; GI50 (ACHN renal): 348 nM; TGI (ACHN renal): > 100000 nM; GI50 (UACC-257 melanoma): 429 nM; TGI (UACC-257 melanoma): 78500 nM
